One assay deals with T1, pY641-STAT6 in PBMC (Homo sapiens, UniProt P42226).
T1 construct: Cryopreserved Peripheral Blood Mononuclear Cells (PBMC) are from AllCells; host or cells: cryopreserved PBMC
T1 sequence (P42226 1-847): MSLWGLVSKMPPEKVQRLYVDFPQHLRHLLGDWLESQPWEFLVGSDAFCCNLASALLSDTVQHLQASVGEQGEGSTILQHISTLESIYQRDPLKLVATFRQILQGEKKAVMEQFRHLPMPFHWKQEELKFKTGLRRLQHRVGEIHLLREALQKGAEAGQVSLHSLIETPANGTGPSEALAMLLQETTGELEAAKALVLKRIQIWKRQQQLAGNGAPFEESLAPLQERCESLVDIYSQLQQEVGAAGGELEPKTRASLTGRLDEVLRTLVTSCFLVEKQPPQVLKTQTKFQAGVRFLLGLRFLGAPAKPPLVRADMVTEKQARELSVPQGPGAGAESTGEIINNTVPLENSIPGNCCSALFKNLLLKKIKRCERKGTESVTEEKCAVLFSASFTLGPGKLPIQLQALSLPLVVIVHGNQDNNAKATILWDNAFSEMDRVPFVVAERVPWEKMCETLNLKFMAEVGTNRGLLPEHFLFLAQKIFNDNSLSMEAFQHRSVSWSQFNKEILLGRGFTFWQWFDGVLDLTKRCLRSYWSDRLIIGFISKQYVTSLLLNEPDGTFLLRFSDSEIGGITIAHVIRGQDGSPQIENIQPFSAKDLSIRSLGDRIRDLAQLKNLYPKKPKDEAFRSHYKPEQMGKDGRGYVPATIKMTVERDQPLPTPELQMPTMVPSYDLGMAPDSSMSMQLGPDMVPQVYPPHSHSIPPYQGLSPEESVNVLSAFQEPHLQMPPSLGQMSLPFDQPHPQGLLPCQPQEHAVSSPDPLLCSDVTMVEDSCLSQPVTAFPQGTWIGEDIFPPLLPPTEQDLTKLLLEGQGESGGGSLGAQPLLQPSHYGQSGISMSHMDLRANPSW
The experiment in a line: MSD-pSTAT-PBMC Assay (pSTAT6, IL-4 stimulated). It counts as cell-based. The conditions noted are these: compound 3 hrs, then 1 ng/mL IL-4 for 10 min. Put shortly:
(§1)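 Thawed human PBMC rested overnight in IMDM/10% FBS, then got compound for 3 hrs before a 10 min cytokine pulse: 1 ng/mL IL-4 for pSTAT6, 10 ng/mL IL-6 for pSTAT3. Lysates went to MSD sandwich capture on total STAT6 or STAT3 with phospho-specific detection. IC50 came from background-subtracted, DMSO-normalized signal.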

The target of another assay is T2, pY705-STAT3 in PBMC (Homo sapiens, UniProt P40763).
T2 construct: Cryopreserved Peripheral Blood Mononuclear Cells (PBMC) are from AllCells; host or cells: cryopreserved PBMC
T2 sequence (P40763 whole entry): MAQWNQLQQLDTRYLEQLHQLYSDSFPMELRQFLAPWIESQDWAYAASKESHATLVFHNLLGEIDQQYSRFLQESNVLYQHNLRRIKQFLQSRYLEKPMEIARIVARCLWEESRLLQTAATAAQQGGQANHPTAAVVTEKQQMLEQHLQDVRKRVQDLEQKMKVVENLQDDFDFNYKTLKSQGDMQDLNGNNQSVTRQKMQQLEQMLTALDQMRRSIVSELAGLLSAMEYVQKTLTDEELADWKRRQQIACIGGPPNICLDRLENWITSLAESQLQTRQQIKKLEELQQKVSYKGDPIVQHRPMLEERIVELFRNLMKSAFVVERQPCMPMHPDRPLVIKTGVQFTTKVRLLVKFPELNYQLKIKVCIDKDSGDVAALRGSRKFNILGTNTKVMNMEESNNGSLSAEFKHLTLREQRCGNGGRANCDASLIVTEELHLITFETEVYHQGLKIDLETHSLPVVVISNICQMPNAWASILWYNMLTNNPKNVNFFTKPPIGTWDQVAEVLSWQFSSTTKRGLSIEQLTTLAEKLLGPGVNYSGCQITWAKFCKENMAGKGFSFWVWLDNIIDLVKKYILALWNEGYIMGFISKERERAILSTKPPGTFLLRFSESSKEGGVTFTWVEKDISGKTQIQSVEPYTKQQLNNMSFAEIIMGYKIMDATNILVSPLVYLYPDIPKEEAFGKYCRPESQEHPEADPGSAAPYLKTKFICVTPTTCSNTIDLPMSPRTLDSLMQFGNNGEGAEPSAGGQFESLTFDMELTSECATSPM
The experiment in a line: MSD-pSTAT-PBMC Assay (pSTAT3, IL-6 stimulated). It counts as cell-based. The settings on record: compound 3 hrs, then 10 ng/mL IL-6 for 10 min. Put shortly: as §1

Setting [1] is: PBMC, Table 115, read-out: STAT3.
Where [2] appears, read: PBMC, Table 1114, read-out: pSTAT6.
[3] abbreviates: PBMC, Table 1114, read-out: pSTAT3.
Setting [4] is: PBMC, Table 115, read-out: STAT6.

Among the data in patent US20250215029A1 (Recludix Pharma, Inc., priority 2022, published 2025) are IC50 values, retold here.

Read-outs that look alike come from different tables or passages of the source. A value given as a limit tells only on which side of the number the result lay.

For `CCCOC(=O)[C@H](C)NP(=O)(Oc1ccccc1)C(F)(F)c1ccc2ccc(C(=O)N[C@H]3CCCC[C@H]4CC[C@@H](C(=O)N5CC(c6ccccc6)CC56CC6)N4C3=O)cc2c1` (stereo partly drawn) [Compound 403, propyl ((difluoro(7-(((3S,6S,10aS)-5-oxo-3-(6-phenyl-4-azaspiro[2.4]heptane-4-carbonyl)decahydropyrrolo[1,2-a]azocin-6-yl)carbamoyl)naphthalen-2-yl)methyl)(phenoxy)phosphoryl)-L-alaninate], the IC50 was 100 to 1000 nM against pY641-STAT6 in PBMC (STAT6, PBMC, Table 115) and above 3000 nM at pY705-STAT3 in PBMC (setting [1]).

For `CCCOC(=O)[C@H](C)NP(=O)(Oc1ccccc1)C(F)c1ccc2sc(C(=O)N[C@H]3C[C@H](C)C[C@H]4CC[C@@H](C(=O)N5CC(c6cnccc6F)C5)N4C3=O)cc2c1` (stereo partly drawn) [Compound 263, propyl ((fluoro(2-(((3S,6S,8S,9aR)-3-(3-(4-fluoropyridin-3-yl)azetidine-1-carbonyl)-8-methyl-5-oxooctahydro-1H-pyrrolo[1,2-a]azepin-6-yl)carbamoyl)benzo [b]thiophen-5-yl)methyl)(phenoxy)phosphoryl)-L-alaninate], the IC50 against pY641-STAT6 in PBMC (STAT6, PBMC, Table 115) was above 3000 nM; at pY705-STAT3 in PBMC (setting [1]), below 100 nM.

In the case of `CCCC(=O)SCCOP(=O)(Oc1cccc2ccccc12)C(F)(F)c1ccc2sc(C(=O)N[C@H]3CCC[C@H]4CC[C@@H](C(=O)N5CC(c6cccnc6)C5)N4C3=O)cc2c1` (stereo partly drawn) [Compound 140, S-(2-(((difluoro(2-(((3S,6S,9aS)-5-oxo-3-(3-(pyridin-3-yl)azetidine-1-carbonyl)octahydro-1H-pyrrolo[1,2-a]azepin-6-yl)carbamoyl)benzo[b]thiophen-5-yl)methyl) (naphthalen-1-yloxy)phosphoryl)oxy)ethyl) butanethioate], the IC50 at pY641-STAT6 in PBMC (pSTAT6, PBMC, Table 1114) was 1000 to 3000 nM; against pY705-STAT3 in PBMC (pSTAT3, PBMC, Table 1114), below 100 nM.

Regarding `CC(C)(C)C(=O)OCOP(=O)(OCOC(=O)C(C)(C)C)C(F)(F)c1ccc2sc(C(=O)N[C@H]3CCCC[C@H]4CC[C@@H](C(=O)N5CCN(C(=O)c6cn[nH]c6)CC5)N4C3=O)cc2c1` [Compound 192, ((((2-(((3S,6S,10aS)-3-(4-(1H-pyrazole-4-carbonyl)piperazine-1-carbonyl)-5-oxodecahydro-pyrrolo[1,2-a]azocin-6-yl)carbamoyl)benzo[b]thiophen-5-yl)difluoro-methyl)phos-phoryl)bis(oxy)) bis(methylene) bis(2,2-dimethyl-propanoate)], the IC50 lay in the range of 1000 to 3000 nM on pY641-STAT6 in PBMC (setting [2]) and 100 to 1000 nM at pY705-STAT3 in PBMC (setting [3]).

Turning to `CC(C)CC(=O)SCCOP(=O)(OCOC(=O)OC1CCOCC1)C(F)(F)c1ccc2sc(C(=O)N[C@H]3CCCC[C@H]4CC[C@@H](C(=O)N5C[C@H](c6cc[nH]c(=O)c6)[C@@H](C#N)C5)N4C3=O)cc2c1` (single isomer, unassigned) [Compound 1085], the IC50 at pY641-STAT6 in PBMC (setting [4]) is below 100 nM; on pY705-STAT3 in PBMC (setting [1]), 100 to 1000 nM.

On to `CC(C)CC(=O)SCCOP(=O)(OCCSC(=O)CC(C)C)C(F)(F)c1ccc2ccc(C(=O)N[C@H]3CCCC[C@H]4CC[C@@H](C(=O)N5CC(c6cc[nH]c(=O)c6)CC56CC6)N4C3=O)cc2c1` (stereo partly drawn) [Compound 1092, S,S′-((((difluoro(7-(((3S,6S,10aS)-5-oxo-3-(6-(2-oxo-1,2-dihydropyridin-4-yl)-4-azaspiro[2.4]heptane-4-carbonyl)decahydropyrrolo[1,2-a]azocin-6-yl)carbamoyl)naphthalen-2-yl)methyl)phosphoryl)bis(oxy))bis(ethane-2,1-diyl)) bis(3-methylbutanethioate)], for which the IC50 is below 100 nM on pY641-STAT6 in PBMC (setting [4]) and 100 to 1000 nM on pY705-STAT3 in PBMC (setting [1]).

As to `CC(C)CC(=O)SCCOP(=O)(OCCSC(=O)CC(C)C)C(F)(F)c1ccc2sc(C(=O)N[C@H]3CCC[C@H]4CC[C@@H](C(=O)N5CC(c6ncccn6)C5)N4C3=O)cc2c1` [Compound 961, S,S′-((((difluoro(2-(((3S,6S,9aS)-5-oxo-3-(3-(pyrimidin-2-yl)azetidine-1-carbonyl)octahydro-1H-pyrrolo[1,2-a]azepin-6-yl)carbamoyl)benzo [b]thiophen-5-yl)methyl)phosphoryl)bis(oxy))bis(ethane-2,1-diyl)) bis(3-methylbutanethioate)], the values for the IC50 at pY641-STAT6 in PBMC (setting [4]) and at pY705-STAT3 in PBMC (setting [1]) were 1000 to 3000 nM and below 100 nM, respectively.

In the case of `CC(C)(C)C(=O)OCOP(=O)(OCOC(=O)C(C)(C)C)C(F)(F)c1ccc2sc(C(=O)N[C@H]3CCCC4CC[C@@H](C(=O)N5CC(N6CCOCC6)C5)N4C3=O)cc2c1` (stereo partly drawn) [Compound 249, (((difluoro(2-(((3S,6S)-3-(3-morpholinoazetidine-1-carbonyl)-5-oxooctahydro-1H-pyrrolo[1,2-a]azepin-6-yl)carbamoyl)benzo [b]thiophen-5-yl)methyl)phosphoryl)bis(oxy))bis (methylene) bis(2,2-dimethylpropanoate)], the IC50 was 100 to 1000 nM on pY641-STAT6 in PBMC (setting [4]) and below 100 nM at pY705-STAT3 in PBMC (setting [1]).

Consider `CC(C)(CO)C(=O)SCCOP(=O)(Oc1ccccc1)C(F)(F)c1ccc2sc(C(=O)N[C@H]3CCCC[C@H]4CC[C@@H](C(=O)N5C[C@@H](C#N)[C@H](c6cc[nH]c(=O)c6)C5)N4C3=O)cc2c1` (single isomer, unassigned) [Compound 1091], for which the IC50 was above 3000 nM on pY641-STAT6 in PBMC (STAT6, PBMC, Table 115) and above 3000 nM at pY705-STAT3 in PBMC (setting [1]).

In the case of `CCCOC(=O)[C@H](C)NP(=O)(Cc1ccc2sc(C(=O)N[C@H]3CCC[C@H]4CC[C@@H](C(=O)N5CC(c6cnccc6F)C5)N4C3=O)cc2c1)Oc1ccccc1` (stereo partly drawn) [Compound 304, propyl (((2-(((3S,6S,9aS)-3-(3-(4-fluoropyridin-3-yl)azetidine-1-carbonyl)-5-oxooctahydro-1H-pyrrolo[1,2-a]azepin-6-yl)carbamoyl)benzo [b]thiophen-5-yl)methyl)(phenoxy)phosphoryl)-L-alaninate], the IC50 against pY641-STAT6 in PBMC (STAT6, PBMC, Table 115) is above 3000 nM; at pY705-STAT3 in PBMC (setting [1]), below 100 nM.

Consider `CC(C)(C)C(=O)SCCOP(=O)(OCCSC(=O)C(C)(C)C)C(F)(F)c1ccc2sc(C(=O)N[C@H]3CCCC[C@H]4CC[C@@H](C(=O)N5C[C@@H](C#N)[C@H](c6ccccc6)C5)N4C3=O)cc2c1` (single isomer, unassigned) [Compound 127, S,S′-(((((2-(((3S,6S,10aS)-3-((3S,4R or 3R,4S)-3-cyano-4-phenylpyrrolidine-1-carbonyl)-5-oxodecahydro-pyrrolo[1,2-a]azocin-6-yl)carbamoyl)benzo[b]thiophen-5-yl)difluoromethyl)phosphoryl)bis(oxy))bis(ethane-2,1-diyl))bis(2,2-dimethylpropane-thioate], for which the IC50 lay within 100 to 1000 nM at pY641-STAT6 in PBMC (setting [2]) and 1000 to 3000 nM on pY705-STAT3 in PBMC (setting [3]).

As for `CC(C)(C)C(=O)OCOP(=O)(OCOC(=O)C(C)(C)C)C(F)(F)c1ccc2sc(C(=O)N[C@H]3CCC[C@H]4CC[C@@H](C(=O)N5CC(c6ccccn6)C5)N4C3=O)cc2c1` [Compound 188, (((difluoro(2-(((3S,6S,9aS)-5-oxo-3-(3-(pyridin-2-yl)azetidine-1-carbonyl)octahydro-1H-pyrrolo[1,2-a]azepin-6-yl)carbamoyl)benzo[b]thiophen-5-yl)methyl)phosphoryl)bis (oxy))bis (methylene) bis(2,2-dimethyl-propanoate)], the IC50 on pY641-STAT6 in PBMC (setting [2]) was 100 to 1000 nM; at pY705-STAT3 in PBMC (setting [3]), below 100 nM.

On to `CCCCOC(=O)[C@H](C)NP(=O)(Oc1ccccc1)C(F)(F)c1ccc2ccc(C(=O)N[C@H]3CCCC[C@H]4CC[C@@H](C(=O)N5CC(c6ccccc6)CC56CC6)N4C3=O)cc2c1` (stereo partly drawn) [Compound 407, butyl ((difluoro(7-(((3S,6S,10aS)-5-oxo-3-(6-phenyl-4-azaspiro[2.4]heptane-4-carbonyl)decahydropyrrolo[1,2-a]azocin-6-yl)carbamoyl)naphthalen-2-yl)methyl)(phenoxy)phosphoryl)-L-alaninate], for which the IC50 against pY641-STAT6 in PBMC (STAT6, PBMC, Table 115) was 1000 to 3000 nM; at pY705-STAT3 in PBMC (setting [1]) it was above 3000 nM.
